Measured values published in PMC5896574 (ChemMedChem, 2017).
Read-outs that look alike come from different tables or passages of the source.

Legend:
HIV-1 protease = HIV-1 protease (Human immunodeficiency virus type 1 group M subtype B, UniProt P04585); assay: HIV-1 protease inhibitory assay; type: biochemical
HIV-1LAI = assay: Antiviral assay using MT-2 cells exposed to HIV-1LAI; type: cell-based
HIV-1NL4-3 = assay: Antiviral p24 assay, MT-4 cells exposed to wild-type HIV-1NL4-3; type: cell-based
HIV-1DRV^RP20 = assay: microbe, parasite or virus in culture; type: cell-based; conditions: for fold change of IC50: HIV-1DRV^RP20 relative to HIV-1NL4-3
HIV-1DRV^RP30 = assay: microbe, parasite or virus in culture; type: cell-based; conditions: for fold change of IC50: HIV-1DRV^RP30 relative to HIV-1NL4-3
HIV-1DRV^RP40 = assay: microbe, parasite or virus in culture; type: cell-based; conditions: for fold change of IC50: HIV-1DRV^RP40 relative to HIV-1NL4-3
HIVAO2 = assay: Antiviral activity of 3b against HIVAO2; type: cell-based, HIV
HIV-2ROD = assay: Antiviral activity of 3b against HIV-2ROD; type: cell-based; conditions: read-out: Antiviral activity (EC50)
HIVDRV^RP20 = assay: Antiviral activity of 3b against HIVDRV^RP20; type: cell-based, HIV; conditions: read-out: Antiviral activity (EC50)
[1] = Human immunodeficiency virus 1, MT2, read-out: antiviral IC50
[2] = Human immunodeficiency virus 1, MT4
[3] = read-out: antiviral IC50, MT-2 cells exposed to HIV-1LAI, mean of at least three experiments

Q: Which results are given for `COC(=O)c1coc(-c2ccc(S(=O)(=O)N(CC(C)C)C[C@@H](O)[C@H](Cc3ccccc3)NC(=O)O[C@H]3CO[C@H]4OCC[C@H]43)cc2)n1` [3g, Methyl 2-(4-(N-((2R,3S)-3-(((((3R,3aS,6aR)-hexahydrofuro[2,3-b]furan-3-yl)oxy)carbonyl)amino)-2-hydroxy-4-phenylbutyl)-N-isobutylsulfamoyl)phenyl)oxazole-4-carboxylate]?
A: Ki (HIV-1 protease): 0.0279 nM; IC50 (HIV-1LAI; [1]): 6.2 nM; IC50 (HIV-1NL4-3; [2]): 22 nM; fold change of IC50 (HIV-1DRV^RP20): 15; IC50 (HIV-1DRV^RP20; [2]): 320 nM; fold change of IC50 (HIV-1DRV^RP30): 20; IC50 (HIV-1DRV^RP30; [2]): 430 nM; fold change of IC50 (HIV-1DRV^RP40): > 46; IC50 (HIV-1DRV^RP40; [2]): > 1000 nM

Q: How did the IC50 (HIV-1LAI; [3]) turn out when `CC(C)CN(C[C@@H](O)[C@H](Cc1ccccc1)NC(=O)O[C@H]1CO[C@H]2OCC[C@H]21)S(=O)(=O)c1ccc(C(N)=O)cc1` [3b, (3R,3aS,6aR)-Hexahydrofuro[2,3-b]furan-3-yl ((2S,3R)-4-((4-carba-moyl-N-isobutylphenyl)sulfonamido)-3-hydroxy-1-phenylbutan-2-yl)carbamate] was run?
A: 45 nM

Q: What about the EC50 (HIVAO2) of the same molecule?
A: 29 nM

Q: And the EC50 (HIV-2ROD)?
A: 30 nM

Q: And the EC50 (HIVDRV^RP20)?
A: 97 nM

Q: `CC(C)CN(CC(O)C(Cc1ccccc1)NC(=O)OC1COC2OCCC12)S(=O)(=O)c1ccc(-c2cnco2)cc1` [3i, (3R,3aS,6aR)-Hexahydrofuro[2,3-b]furan-3-yl ((2S,3R)-3-hydroxy-4-((N-isobutyl-4-(oxazol-5-yl)phenyl)sulfonamido)-1-phenylbu-tan-2-yl)carbamate] was tested. Which IC50 (HIV-1LAI; [3]) did it give?
A: 2.8 nM

Q: With `CC(C)CN(C[C@@H](O)[C@H](Cc1ccccc1)NC(=O)O[C@H]1CO[C@H]2OCC[C@H]21)S(=O)(=O)c1ccc([C@@H](C)O)cc1` [3e, (3R,3aS,6aR)-Hexahydrofuro[2,3-b]furan-3-yl ((2S,3R)-3-hydroxy-4-((4-((R)-1-hydroxyethyl)-N-isobutylphenyl)sulfonamido)-1-phe-nylbutan-2-yl)carbamate] as the molecule, how does the IC50 (HIV-1LAI; [3]) read?
A: 4 nM

Q: For `CC(C)CN(C[C@@H](O)[C@H](Cc1ccccc1)NC(=O)O[C@H]1CO[C@H]2OCC[C@H]21)S(=O)(=O)c1ccc(-c2nc(CO)co2)cc1` [3h, (3R,3aS,6aR)-Hexahydrofuro[2,3-b]furan-3-yl ((2S,3R)-3-hydroxy-4-((4-(4-(hydroxymethyl)oxazol-2-yl)-N-isobutylphenyl)sulfona-mido)-1-phenylbutan-2-yl)carbamate], which IC50 (HIV-1LAI; [3]) is on record?
A: 3.9 nM

Q: What about the IC50 (HIV-1NL4-3; MT-4 cells, 50 TCID50 HIV-1NL4-3, p24 assay) of the same molecule?
A: 3 nM

Q: What about the “fold change of IC50” value (HIV-1DRV^RP20) of the same molecule?
A: 88

Q: What about the IC50 (HIV-1DRV^RP20; MT-4 cells, 50 TCID50 HIV-1DRV^RP20, p24 assay) of the same molecule?
A: 260 nM

Q: What about the “fold change of IC50” value (HIV-1DRV^RP30) of the same molecule?
A: 99

Q: What about the IC50 (HIV-1DRV^RP30; MT-4 cells, 50 TCID50 HIV-1DRV^RP30, p24 assay) of the same molecule?
A: 290 nM

Q: What about the “fold change of IC50” value (HIV-1DRV^RP40) of the same molecule?
A: > 337

Q: What about the IC50 (HIV-1DRV^RP40; MT-4 cells, 50 TCID50 HIV-1DRV^RP40, p24 assay) of the same molecule?
A: > 1000 nM

Q: With `CC(C)CN(C[C@@H](O)[C@H](Cc1ccccc1)NC(=O)O[C@H]1CO[C@H]2OCC[C@H]21)S(=O)(=O)c1ccc(C(=O)O)cc1` [3a, 4-(N-((2R,3S)-3-(((((3R,3aS,6aR)-Hexahydrofuro[2,3-b]furan-3-yl)oxy)carbonyl)amino)-2-hydroxy-4-phenylbutyl)-N-isobutylsul-famoyl)benzoic acid] as the molecule, how does the IC50 (HIV-1LAI; read-out: antiviral IC50, MT-2 cells exposed to HIV-1LAI) read?
A: > 1000 nM

Q: Which results are given for `CC(C)CN(C[C@@H](O)[C@H](Cc1ccccc1)NC(=O)O[C@H]1CO[C@H]2OCC[C@H]21)S(=O)(=O)c1ccc(N)cc1` [DRV, darunavir, reference compound]?
A: IC50 (HIV-1LAI; [1]): 1.6 nM; IC50 (HIV-1NL4-3; [2]): 3.4 nM; IC50 (HIV-1DRV^RP20; [2]): 43 nM; IC50 (HIV-1DRV^RP40; [2]): > 1000 nM
